Like-named read-outs stand apart in the source and are kept apart here.
Biological target: T1, BCL6 (Homo sapiens, UniProt P41182)
T1 construct: endogenous in cells; host or cells: T47D breast cancer epithelial cells
Assay: Immunofluorescence protocol for high content imaging of BCL6 (degradation) in T47D cells, 3 days compound treatment
Assay type: cell-based
Details: for Dmax: read-out: Mean Dmax (%)** category; for DC50: read-out: Mean DC50 (nM)* category
Method: Immunofluorescence Protocol for High Content Imaging of BCL6
T47D cells were seeded in 100 μl volume of RPMI1640-10% FBS in a 96-well black/clear bottom plates for adherent lines (Corning #3904).
Day 1. T47D breast cancer epithelial cells were seeded at a density so that confluence is ˜70-90% at endpoint. Cells were seeded at 7K/0.1 ml/well the morning prior to the addition of exemplary bifunctional degradation compounds.
Day 2. Prepare an 11 point 3-fold serial dilution of exemplary bifunctional compound in DMSO and aliquot an appropriate volume to cell growth media to generate a 2× final concentration of exemplary bifunctional compound. Add an equal volume (0.1 ml) of 2× exemplary bifunctional compound/media mix to previously plated cells, for a final top concentration in aqueous cell growth media of 0.1 or 1 μM. Incubate for 3 days at 37° C., 5% CO2.
Day 5 Immunofluorescence. Discard cell media. Wash wells with 200 μl of room temperature phosphate-buffered saline (PBS). Prepared 4% paraformaldehyde (PFA) from 16% PFA (Electron Microscopy Sciences #15710) using 1×PBS. Fifty μl of 4% PF was added to each well and incubate for 15 minutes at room temperature to fix the cells. The PFA was aspirated and the cells washed twice with PBS (200 μl)).
Prepared 0.1% Triton X-100 in PBS using 10% triton X-100 stock. The cells were permeabilized by adding 100 ul of the 0.1% Triton X-100 in PBS to each well to permeabilize cells and incubating at room temperature for 15 minutes. Cells were washed twice with PBS.
Prepared 3% BSA/PBS (from Thermofisher #37515 Blocker BSA in TBS, 10%), and 100 ul was added to each well. The cells were incubated for at least 1 hour at room temperature.
Prepared 1% BSA/PBS using Blocker BSA/PBS, and the 3% BSA/PBS removed from the wells.
For no primary antibody controls, 50 μl 1% BSA/PBS was added.
Primary antibody (BCL6 Rb Ab, CST-14895, Cell Signaling) was diluted 1:300 in 1% BSA/PBS using Blocker BSA/PBS.
Fifty μl of primary antibody added to all remaining wells (i.e., all wells other than the primary antibody controls) and the cells were incubated overnight at 4° C. with slow orbital movement.
Day 6. Contents of the wells was removed and the cells washed four times with 200 ul PBS. 1% BSA/PBS was prepared using Blocker BSA in PBS.
Diluted secondary antibody goat anti-Rb IgG Alexa-488 1:1000, and cell mask-Alexa-647 1:3000 in 1% BSA/PBS in the same mix. Add 50 μl to each well and incubate at room temperature for 1 hour in the dark.
Cells were washed three times with 200 ul PBS, and then incubated for 10 minutes with 100 ul Hoechst dye at 1 μg/mL (20 mM stock) to stain cell nuclei. Wells were then washed with 200 μl PBS, and 100 ul of PBS was added to each well and the plate covered plate with a plastic opaque cover. Plates were stored at 4° C. and covered in aluminum foil until imaged.
Plates were equilibrated to room temperature prior to reading. The bottom of the plate was wiped with 70% isopropanol immediately prior to imaging.
10×, 4 fields/well, include Top hat smoothing in the analysis protocol.
16% paraformaldehyde: Electron Microscopy Sciences #15710
Hoechst: Thermofisher #62249
Blocker BSA in PBS, 10%: Thermofisher #37515
Blocker BSA in TBS, 10%: Thermofisher #37520
Goat anti-rabbit or mouse AlexaFluor-488: Thermofisher #A11008
Cell mask deep red AlexaFluor-647: Thermofisher #C10046
Wash buffer, PBS: 20×PBS, Thermofisher

[1] = T47D cells, 3 days compound treatment

Structure (SMILES) | DC50 [1] | Dmax [1] | Dmax (T47D) | DC50
CNC(=O)COc1cc2cc(Nc3nc(N4CCC(O[C@H]5C[C@H](N6CCCN(c7ccc8c(c7C)C(=O)N(C7CCC(=O)NC7=O)C8=O)CC6)C5)CC4)ncc3Cl)ccc2n(C(C)C)c1=O (some centres unmarked) [Compound 417, 2-({6-[(5-chloro-2-{4-[(1r,3r)-3-{4-[2-(2,6-dioxopiperidin-3-yl)-4-methyl-1,3-dioxo-2,3-dihydro-1H-isoindol-5-yl]-1,4-diazepan-1-yl}cyclobutoxy]piperidin-1-yl}pyrimidin-4-yl)amino]-2-oxo-1-(propan-2-yl)-1,2-dihydroquinolin-3-yl}oxy)-N-methylacetamide] |  |  | ≥ 70% | < 10 nM
CNC(=O)COc1cc2cc(Nc3nc(N4CCC(O[C@H]5C[C@H](N6CC7(CCN(c8ccc9c(c8)CN(C8CCC(=O)NC8=O)C9=O)CC7)C6)C5)CC4)ncc3Cl)ccc2n(C(C)C)c1=O (some centres unmarked) [Compound 369, 2-({6-[(5-chloro-2-{4-[(1r,3r)-3-{7-[2-(2,6-dioxopiperidin-3-yl)-1-oxo-2,3-dihydro-1H-isoindol-5-yl]-2,7-diazaspiro[3.5]nonan-2-yl}cyclobutoxy]piperidin-1-yl}pyrimidin-4-yl)amino]-2-oxo-1-(propan-2-yl)-1,2-dihydroquinolin-3-yl}oxy)-N-methylacetamide] |  |  | ≥ 70% | < 10 nM
CNC(=O)COc1cc2cc(Nc3nc(N4CCC(CN5CCC6(CC5)CCN6c5cccc6c5C(=O)N(C5CCC(=O)NC5=O)C6=O)CC4)ncc3Cl)ccc2n(C(C)C)c1=O (centres unmarked) [Compound 333, 2-{[6-({5-chloro-2-[4-({1-[2-(2,6-dioxopiperidin-3-yl)-1,3-dioxo-2,3-dihydro-1H-isoindol-4-yl]-1,7-diazaspiro[3.5]nonan-7-yl}methyl)piperidin-1-yl]pyrimidin-4-yl}amino)-2-oxo-1-(propan-2-yl)-1,2-dihydroquinolin-3-yl]oxy}-N-methylacetamide] |  |  | ≥ 70% | < 10 nM
CNC(=O)COc1cc2cc(Nc3nc(N4CCC(O[C@H]5C[C@H](N6CCC(c7ccc8c(c7Cl)CN(C7CCC(=O)NC7=O)C8=O)CC6)C5)CC4)ncc3Cl)ccc2n(C(C)C)c1=O (some centres unmarked) [Compound 163, 2-({6-[(5-chloro-2-{4-[(1r,3r)-3-{4-[4-chloro-2-(2,6-dioxopiperidin-3-yl)-1-oxo-2,3-dihydro-1H-isoindol-5-yl]piperidin-1-yl}cyclobutoxy]piperidin-1-yl}pyrimidin-4-yl)amino]-2-oxo-1-(propan-2-yl)-1,2-dihydroquinolin-3-yl}oxy)-N-methylacetamide] | < 10 nM | ≥ 70% |  | 
CNC(=O)COc1cc2cc(Nc3nc(N4CCC(O[C@H]5C[C@H](N6CCC(O)(c7ccc8c(c7F)CN(C7CCC(=O)NC7=O)C8=O)CC6)C5)CC4)ncc3Cl)ccc2n(C(C)C)c1=O (some centres unmarked) [Compound 277, 2-({6-[(5-chloro-2-{4-[(1r,3r)-3-{4-[2-(2,6-dioxopiperidin-3-yl)-4-fluoro-1-oxo-2,3-dihydro-1H-isoindol-5-yl]-4-hydroxypiperidin-1-yl}cyclobutoxy]piperidin-1-yl}pyrimidin-4-yl)amino]-2-oxo-1-(propan-2-yl)-1,2-dihydroquinolin-3-yl}oxy)-N-methylacetamide] |  |  | 50 to 70% | < 10 nM
CNC(=O)COc1cc2cc(Nc3nc(N4CCC(O[C@H]5C[C@H](N6CCN(c7ccc8c(c7Cl)CN(C7CCC(=O)NC7=O)C8=O)[C@@H](C)C6)C5)CC4)ncc3Cl)ccc2n(C(C)C)c1=O (stereo partly drawn) [Compound 206, 2-({6-[(5-chloro-2-{4-[(1r,3r)-3-[(3S)-4-[4-chloro-2-(2,6-dioxopiperidin-3-yl)-1-oxo-2,3-dihydro-1H-isoindol-5-yl]-3-methylpiperazin-1-yl]cyclobutoxy]piperidin-1-yl}pyrimidin-4-yl)amino]-2-oxo-1-(propan-2-yl)-1,2-dihydroquinolin-3-yl}oxy)-N-methylacetamide] | < 10 nM | ≥ 70% |  | 
CNC(=O)COc1cc2cc(Nc3nc(N4CCC(O[C@H]5C[C@H](N6C[C@H](C)N(c7ccc8c(c7)C(=O)N(C7CCC(=O)NC7=O)C8=O)[C@@H](C)C6)C5)CC4)ncc3Cl)ccc2n(C(C)C)c1=O (stereo partly drawn) [Compound 246, 2-({6-[(5-chloro-2-{4-[(1r,3r)-3-[(3S,5S)-4-[2-(2,6-dioxopiperidin-3-yl)-1,3-dioxo-2,3-dihydro-1H-isoindol-5-yl]-3,5-dimethylpiperazin-1-yl]cyclobutoxy]piperidin-1-yl}pyrimidin-4-yl)amino]-2-oxo-1-(propan-2-yl)-1,2-dihydroquinolin-3-yl}oxy)-N-methylacetamide] |  |  | 50 to 70% | < 10 nM
CNC(=O)COc1cc2cc(Nc3nc(N4CCC(CN5CCC6(CN(c7cccc8c7CN(C7CCC(=O)NC7=O)C8=O)C6)C(F)C5)CC4)ncc3Cl)ccc2n(C(C)C)c1=O (centres unmarked) [Compound 326, 2-{[6-({5-chloro-2-[4-({2-[2-(2,6-dioxopiperidin-3-yl)-1-oxo-2,3-dihydro-1H-isoindol-4-yl]-5-fluoro-2,7-diazaspiro[3.5]nonan-7-yl}methyl)piperidin-1-yl]pyrimidin-4-yl}amino)-2-oxo-1-(propan-2-yl)-1,2-dihydroquinolin-3-yl]oxy}-N-methylacetamide] |  |  | ≥ 70% | < 10 nM

Further lines, with some results ahead:

DC50 [1] | Dmax [1] | Structure (SMILES) | Dmax (T47D) | DC50
< 10 nM | 50 to 70% | CNC(=O)COc1cc2cc(Nc3nc(N4CCN(CC5CCN(c6cc(F)cc7c6CN(C6CCC(=O)NC6=O)C7=O)CC5)CC4)ncc3Cl)ccc2n(C(C)C)c1=O (centres unmarked) [Compound 105, 2-{[6-({5-chloro-2-[4-({1-[2-(2,6-dioxopiperidin-3-yl)-6-fluoro-1-oxo-2,3-dihydro-1H-isoindol-4-yl]piperidin-4-yl}methyl)piperazin-1-yl]pyrimidin-4-yl}amino)-2-oxo-1-(propan-2-yl)-1,2-dihydroquinolin-3-yl]oxy}-N-methylacetamide] |  | 
< 10 nM | 50 to 70% | CNC(=O)COc1cc2cc(Nc3nc(N4CCC(F)(CN5CC6(CCN(c7cc8c(cc7F)C(=O)N(C7CCC(=O)NC7=O)C8)CC6)C5)CC4)ncc3Cl)ccc2n(C(C)C)c1=O (centres unmarked) [Compound 106] |  | 
≥ 100 nM | ≥ 70% | CC(C)n1c(=O)c(OCC(=O)N(C)C)cc2cc(Nc3nc(N4CCC(CN5CCC6(CC5)CN(c5ccc7c(c5)C(=O)N(C5CCC(=O)NC5=O)C7=O)C6)CC4)ncc3Cl)ccc21 (centres unmarked) [Compound 55, 2-{[6-({5-chloro-2-[4-({2-[2-(2,6-dioxopiperidin-3-yl)-1,3-dioxo-2,3-dihydro-1H-isoindol-5-yl]-2,7-diazaspiro[3.5]nonan-7-yl}methyl)piperidin-1-yl]pyrimidin-4-yl}amino)-2-oxo-1-(propan-2-yl)-1,2-dihydroquinolin-3-yl]oxy}-N,N-dimethylacetamide] |  | 
< 10 nM | 50 to 70% | CNC(=O)COc1cc2cc(Nc3nc(N4CCC(C(C)(C)N5CCC6(CCN(c7ccc8c(c7)CN(C7CCC(=O)NC7=O)C8=O)C6)C5)CC4)ncc3Cl)ccc2n(C(C)C)c1=O (centres unmarked) [Compound 53] |  | 
< 10 nM | 50 to 70% | CNC(=O)COc1cc2cc(Nc3nc(N4CCC(CN5CC6(CCN(c7cccc8c7CN(C7CCC(=O)NC7=O)C8=O)CC6(F)F)C5)CC4)ncc3Cl)ccc2n(C(C)C)c1=O (centres unmarked) [Compound 125, 2-{[6-({5-chloro-2-[4-({7-[2-(2,6-dioxopiperidin-3-yl)-1-oxo-2,3-dihydro-1H-isoindol-4-yl]-5,5-difluoro-2,7-diazaspiro[3.5]nonan-2-yl}methyl)piperidin-1-yl]pyrimidin-4-yl}amino)-2-oxo-1-(propan-2-yl)-1,2-dihydroquinolin-3-yl]oxy}-N-methylacetamide] |  | 

Reference: patent US11986532B2 (Arvinas Operations, Inc., priority 2021, dated 2024)
